Targets include Histamine H3 receptor (Homo sapiens, UniProt Q9Y5N1); D(1A) dopamine receptor (Homo sapiens, UniProt P21728); D(3) dopamine receptor (Homo sapiens, UniProt P35462); Mu-type opioid receptor (Homo sapiens, UniProt P35372).
The target in assay [1] is 5-hydroxytryptamine receptor 2B (Homo sapiens, UniProt P41595). Format: functional, cell-based.
Assay [2] deals with Prostaglandin G/H synthase 1 (Homo sapiens, UniProt P23219). Format: functional.
The target of the next assay is Prothrombin (Homo sapiens, UniProt P00734). Format: functional.
In assay [3] the target is T1, 5-hydroxytryptamine receptor 1A (Homo sapiens, UniProt P08908).
T1 sequence (P08908 whole entry): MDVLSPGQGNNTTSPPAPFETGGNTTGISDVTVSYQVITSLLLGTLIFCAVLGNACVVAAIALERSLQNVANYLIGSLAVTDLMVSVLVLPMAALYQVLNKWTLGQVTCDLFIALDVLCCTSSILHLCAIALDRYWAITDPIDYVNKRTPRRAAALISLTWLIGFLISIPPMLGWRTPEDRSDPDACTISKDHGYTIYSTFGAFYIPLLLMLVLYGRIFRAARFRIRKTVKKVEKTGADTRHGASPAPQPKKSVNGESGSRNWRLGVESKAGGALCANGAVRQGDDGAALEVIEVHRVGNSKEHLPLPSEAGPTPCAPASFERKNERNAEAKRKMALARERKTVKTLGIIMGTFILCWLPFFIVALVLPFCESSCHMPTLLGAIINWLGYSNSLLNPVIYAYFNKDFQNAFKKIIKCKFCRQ

Assay [4] has as its target 3',5'-cyclic-AMP phosphodiesterase 4A (Homo sapiens, UniProt P27815). It counts as functional.
In assay [5] the target is T2, Alpha-2A adrenergic receptor (Homo sapiens, UniProt P08913).
T2 sequence (P08913 whole entry): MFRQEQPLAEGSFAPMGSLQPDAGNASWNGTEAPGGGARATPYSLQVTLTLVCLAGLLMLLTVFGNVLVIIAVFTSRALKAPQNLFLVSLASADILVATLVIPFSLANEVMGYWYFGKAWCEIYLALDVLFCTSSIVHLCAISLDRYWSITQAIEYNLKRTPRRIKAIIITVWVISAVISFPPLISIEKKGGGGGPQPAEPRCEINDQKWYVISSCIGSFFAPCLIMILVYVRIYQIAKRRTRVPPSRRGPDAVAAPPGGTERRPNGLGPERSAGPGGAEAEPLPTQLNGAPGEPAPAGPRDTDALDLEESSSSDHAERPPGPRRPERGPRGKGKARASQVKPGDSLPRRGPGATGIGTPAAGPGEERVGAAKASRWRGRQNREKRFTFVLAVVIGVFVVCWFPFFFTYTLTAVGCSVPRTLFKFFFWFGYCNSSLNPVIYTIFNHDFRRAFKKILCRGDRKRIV

Another assay addresses Acetylcholinesterase (Homo sapiens, UniProt P22303). It counts as functional.
In assay [6] the target is T3, Thromboxane A2 receptor (Homo sapiens, UniProt P21731).
T3 sequence (P21731 whole entry): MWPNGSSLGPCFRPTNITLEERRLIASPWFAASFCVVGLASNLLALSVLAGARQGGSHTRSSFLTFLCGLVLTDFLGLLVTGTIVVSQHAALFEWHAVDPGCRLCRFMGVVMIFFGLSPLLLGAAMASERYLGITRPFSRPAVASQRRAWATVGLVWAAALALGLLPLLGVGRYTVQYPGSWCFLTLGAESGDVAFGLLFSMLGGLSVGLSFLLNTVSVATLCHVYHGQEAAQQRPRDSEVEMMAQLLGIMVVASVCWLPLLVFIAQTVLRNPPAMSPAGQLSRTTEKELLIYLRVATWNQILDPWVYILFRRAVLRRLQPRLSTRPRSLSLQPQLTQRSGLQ
Format: functional, cell-based.

Assay [7] deals with Voltage-gated inwardly rectifying potassium channel KCNH2 (Homo sapiens, UniProt Q12809). It counts as functional.
Assay [8] deals with T3, Thromboxane A2 receptor. Format: functional, cell-based. The source holds these as a separate data set.
The target in assay [9] is Sodium-dependent dopamine transporter (Homo sapiens, UniProt Q01959).
Assay [10] concerns the target cGMP-inhibited 3',5'-cyclic phosphodiesterase 3A (Homo sapiens, UniProt Q14432). It counts as functional.
Assay [11] deals with Sodium-dependent noradrenaline transporter (Homo sapiens, UniProt P23975).

From ChEMBL document CHEMBL5291721, “A preclinical secondary pharmacology resource illuminates target-adverse drug reaction associations of marketed drugs” (Nat Commun, 2023) come the findings set out here.
Further: assay procedure not described here.

Sequence of D(1A) dopamine receptor (P21728 whole entry): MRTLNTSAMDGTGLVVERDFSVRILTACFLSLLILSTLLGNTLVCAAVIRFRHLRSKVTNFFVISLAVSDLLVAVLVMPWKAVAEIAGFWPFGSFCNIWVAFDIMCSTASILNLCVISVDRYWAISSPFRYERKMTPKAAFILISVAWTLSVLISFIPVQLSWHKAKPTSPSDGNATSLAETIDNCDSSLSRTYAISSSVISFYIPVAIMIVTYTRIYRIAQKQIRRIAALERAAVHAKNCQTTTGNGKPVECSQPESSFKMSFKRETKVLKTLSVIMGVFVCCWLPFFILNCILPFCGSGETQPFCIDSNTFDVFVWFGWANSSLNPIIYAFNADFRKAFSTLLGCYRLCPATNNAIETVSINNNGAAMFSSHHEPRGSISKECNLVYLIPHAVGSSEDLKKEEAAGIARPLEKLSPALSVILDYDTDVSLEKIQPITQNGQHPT
Sequence of Mu-type opioid receptor (P35372 whole entry): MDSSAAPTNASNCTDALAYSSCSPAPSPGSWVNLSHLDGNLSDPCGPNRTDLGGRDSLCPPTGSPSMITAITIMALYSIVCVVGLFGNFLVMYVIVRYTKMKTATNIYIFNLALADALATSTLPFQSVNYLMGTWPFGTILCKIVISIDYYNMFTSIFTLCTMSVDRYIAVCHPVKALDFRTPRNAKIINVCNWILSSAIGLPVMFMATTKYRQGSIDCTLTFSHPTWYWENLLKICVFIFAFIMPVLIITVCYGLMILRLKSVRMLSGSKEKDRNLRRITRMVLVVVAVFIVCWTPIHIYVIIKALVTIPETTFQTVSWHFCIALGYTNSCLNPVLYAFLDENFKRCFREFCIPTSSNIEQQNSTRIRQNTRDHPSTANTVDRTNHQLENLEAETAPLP
Sequence of Prostaglandin G/H synthase 1 (P23219 whole entry): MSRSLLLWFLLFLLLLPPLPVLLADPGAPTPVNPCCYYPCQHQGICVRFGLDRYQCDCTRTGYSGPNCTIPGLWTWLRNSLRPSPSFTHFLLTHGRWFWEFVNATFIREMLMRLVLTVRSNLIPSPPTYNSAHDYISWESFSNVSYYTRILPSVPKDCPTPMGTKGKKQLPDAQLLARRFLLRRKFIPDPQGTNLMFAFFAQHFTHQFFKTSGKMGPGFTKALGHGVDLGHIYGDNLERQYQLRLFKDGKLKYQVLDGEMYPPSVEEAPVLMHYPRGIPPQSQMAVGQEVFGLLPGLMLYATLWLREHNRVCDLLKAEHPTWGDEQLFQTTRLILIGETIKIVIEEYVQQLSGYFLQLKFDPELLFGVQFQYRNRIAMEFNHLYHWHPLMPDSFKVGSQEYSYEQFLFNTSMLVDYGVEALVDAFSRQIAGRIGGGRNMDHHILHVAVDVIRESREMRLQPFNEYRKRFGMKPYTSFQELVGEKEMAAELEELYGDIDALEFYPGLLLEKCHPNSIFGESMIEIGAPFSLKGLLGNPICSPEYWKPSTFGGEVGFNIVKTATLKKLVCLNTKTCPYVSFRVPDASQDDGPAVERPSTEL
Sequence of Voltage-gated inwardly rectifying potassium channel KCNH2 (Q12809 whole entry): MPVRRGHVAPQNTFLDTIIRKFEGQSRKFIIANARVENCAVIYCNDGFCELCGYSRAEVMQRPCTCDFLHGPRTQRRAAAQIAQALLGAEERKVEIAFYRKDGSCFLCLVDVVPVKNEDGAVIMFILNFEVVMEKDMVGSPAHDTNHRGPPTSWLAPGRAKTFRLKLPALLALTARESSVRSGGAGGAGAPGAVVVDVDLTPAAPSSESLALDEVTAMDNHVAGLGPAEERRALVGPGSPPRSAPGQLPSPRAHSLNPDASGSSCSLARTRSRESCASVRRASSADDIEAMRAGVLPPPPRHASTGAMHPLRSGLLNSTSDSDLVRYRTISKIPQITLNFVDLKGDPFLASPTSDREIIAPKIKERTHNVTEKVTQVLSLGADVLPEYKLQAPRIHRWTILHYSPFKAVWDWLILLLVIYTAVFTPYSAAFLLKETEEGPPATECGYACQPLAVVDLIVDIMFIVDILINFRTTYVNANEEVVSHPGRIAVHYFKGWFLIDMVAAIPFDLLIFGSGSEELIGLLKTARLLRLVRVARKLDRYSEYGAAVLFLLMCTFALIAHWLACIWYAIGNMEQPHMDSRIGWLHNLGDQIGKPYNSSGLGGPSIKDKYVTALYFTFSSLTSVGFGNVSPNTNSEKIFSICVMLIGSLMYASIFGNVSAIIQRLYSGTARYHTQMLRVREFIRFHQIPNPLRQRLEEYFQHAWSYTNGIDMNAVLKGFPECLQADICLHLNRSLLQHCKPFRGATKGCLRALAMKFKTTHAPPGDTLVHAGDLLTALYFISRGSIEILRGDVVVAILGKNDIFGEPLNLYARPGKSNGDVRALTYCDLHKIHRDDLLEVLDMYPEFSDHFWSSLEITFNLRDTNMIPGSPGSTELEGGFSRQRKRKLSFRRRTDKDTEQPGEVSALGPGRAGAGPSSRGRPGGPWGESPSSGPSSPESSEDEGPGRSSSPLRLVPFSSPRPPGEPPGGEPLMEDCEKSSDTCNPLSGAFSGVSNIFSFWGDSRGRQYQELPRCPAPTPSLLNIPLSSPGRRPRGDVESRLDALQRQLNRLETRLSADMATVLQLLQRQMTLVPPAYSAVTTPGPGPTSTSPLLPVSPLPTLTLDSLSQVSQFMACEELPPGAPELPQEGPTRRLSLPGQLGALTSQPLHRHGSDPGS
Sequence of cGMP-inhibited 3',5'-cyclic phosphodiesterase 3A (Q14432 whole entry): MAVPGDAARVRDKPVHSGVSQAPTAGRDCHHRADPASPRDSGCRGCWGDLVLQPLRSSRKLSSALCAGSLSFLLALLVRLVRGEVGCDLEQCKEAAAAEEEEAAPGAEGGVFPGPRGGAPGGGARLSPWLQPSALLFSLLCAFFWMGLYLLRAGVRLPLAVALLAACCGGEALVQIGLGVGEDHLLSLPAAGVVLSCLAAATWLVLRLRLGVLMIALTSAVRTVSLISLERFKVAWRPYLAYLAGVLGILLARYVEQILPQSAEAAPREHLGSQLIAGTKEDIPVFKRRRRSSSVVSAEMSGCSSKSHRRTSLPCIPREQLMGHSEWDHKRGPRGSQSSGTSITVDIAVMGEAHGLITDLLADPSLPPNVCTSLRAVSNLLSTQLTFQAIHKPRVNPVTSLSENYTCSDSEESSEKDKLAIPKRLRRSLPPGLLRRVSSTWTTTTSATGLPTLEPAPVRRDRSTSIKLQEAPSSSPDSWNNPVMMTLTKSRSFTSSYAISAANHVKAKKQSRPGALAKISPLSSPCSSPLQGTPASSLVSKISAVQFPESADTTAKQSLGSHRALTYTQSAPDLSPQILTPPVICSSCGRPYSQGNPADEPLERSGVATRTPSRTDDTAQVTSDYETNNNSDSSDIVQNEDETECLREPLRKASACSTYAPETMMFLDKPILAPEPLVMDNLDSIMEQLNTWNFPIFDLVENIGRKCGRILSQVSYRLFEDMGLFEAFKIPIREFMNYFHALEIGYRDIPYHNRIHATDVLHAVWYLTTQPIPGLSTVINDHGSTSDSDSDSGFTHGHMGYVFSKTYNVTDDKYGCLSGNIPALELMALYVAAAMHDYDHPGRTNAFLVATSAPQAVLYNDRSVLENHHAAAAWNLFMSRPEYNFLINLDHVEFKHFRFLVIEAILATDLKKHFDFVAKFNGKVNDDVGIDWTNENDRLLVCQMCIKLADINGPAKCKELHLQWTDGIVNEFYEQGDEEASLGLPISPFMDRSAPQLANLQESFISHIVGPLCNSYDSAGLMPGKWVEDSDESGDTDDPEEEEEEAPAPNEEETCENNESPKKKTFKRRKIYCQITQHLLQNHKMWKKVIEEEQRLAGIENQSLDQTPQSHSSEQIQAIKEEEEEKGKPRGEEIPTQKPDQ
Sequence of Sodium-dependent dopamine transporter (Q01959 whole entry): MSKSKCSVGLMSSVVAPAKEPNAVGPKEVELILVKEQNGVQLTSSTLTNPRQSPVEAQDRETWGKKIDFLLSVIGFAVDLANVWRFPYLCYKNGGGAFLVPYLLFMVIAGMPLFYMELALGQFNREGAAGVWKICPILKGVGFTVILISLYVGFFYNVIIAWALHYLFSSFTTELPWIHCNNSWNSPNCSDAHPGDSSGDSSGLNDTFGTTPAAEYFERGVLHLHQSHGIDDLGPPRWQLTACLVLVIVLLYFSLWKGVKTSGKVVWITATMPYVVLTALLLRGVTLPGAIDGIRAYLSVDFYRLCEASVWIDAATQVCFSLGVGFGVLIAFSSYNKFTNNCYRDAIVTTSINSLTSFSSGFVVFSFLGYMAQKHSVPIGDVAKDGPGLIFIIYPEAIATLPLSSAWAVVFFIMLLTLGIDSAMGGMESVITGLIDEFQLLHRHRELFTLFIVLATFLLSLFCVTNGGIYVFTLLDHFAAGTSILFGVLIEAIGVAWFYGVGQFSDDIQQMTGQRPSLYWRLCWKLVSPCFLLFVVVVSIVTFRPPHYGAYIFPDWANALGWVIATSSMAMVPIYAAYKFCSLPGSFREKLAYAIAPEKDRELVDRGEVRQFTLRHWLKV
Sequence of 5-hydroxytryptamine receptor 2B (P41595 whole entry): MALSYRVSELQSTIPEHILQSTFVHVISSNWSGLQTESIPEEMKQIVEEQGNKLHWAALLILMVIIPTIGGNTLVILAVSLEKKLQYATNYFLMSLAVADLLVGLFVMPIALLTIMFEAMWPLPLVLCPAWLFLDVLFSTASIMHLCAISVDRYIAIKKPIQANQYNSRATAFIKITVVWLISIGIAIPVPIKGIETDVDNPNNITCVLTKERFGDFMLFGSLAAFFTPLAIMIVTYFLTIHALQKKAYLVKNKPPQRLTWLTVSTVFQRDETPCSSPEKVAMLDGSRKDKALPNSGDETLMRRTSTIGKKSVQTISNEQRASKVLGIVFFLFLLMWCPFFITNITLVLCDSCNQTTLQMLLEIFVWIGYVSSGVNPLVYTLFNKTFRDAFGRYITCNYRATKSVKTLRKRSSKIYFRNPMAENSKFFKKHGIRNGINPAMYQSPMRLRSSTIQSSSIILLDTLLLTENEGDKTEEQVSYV

On to `C=CCN1CC[C@]23CCCC[C@H]2[C@H]1Cc1ccc(O)cc13` [LEVALLORPHAN], for which the AC50 in [1] is above 30 µM; in [2], above 30 µM; on Prothrombin, above 30 µM; in assay [3] it was 27.6 µM; on Histamine H3 receptor, above 30 µM; in [4] it was above 30 µM. The AC50 is above 30 µM in [5]; 16.7 µM at Acetylcholinesterase; above 30 µM at Thromboxane A2 receptor [6]; 14 µM in assay [7]; above 30 µM at D(1A) dopamine receptor; 23.4 µM on D(3) dopamine receptor. For the same compound, the concentration at half-maximal activity (AC50) at Thromboxane A2 receptor [8] is above 30 µM; in assay [9] it was above 30 µM; at Mu-type opioid receptor, 0.003 µM; in assay [10], above 30 µM; in [11], above 30 µM.
With `CN(CC1(C)CCCO1)S(=O)(=O)c1ccc(Cl)c(S(N)(=O)=O)c1` (stereo not drawn) [MEFRUSIDE], the AC50 (in [1]; in assay [2]; on Prothrombin; in assay [3]; on Histamine H3 receptor; in assay [4]) was above 30 µM each time. Moreover, the concentration at half-maximal activity (AC50) (in assay [5]; at Acetylcholinesterase; at Thromboxane A2 receptor [6]; in [7]; at D(1A) dopamine receptor; at D(3) dopamine receptor) was above 30 µM throughout. The AC50 (on Thromboxane A2 receptor [8]; in [9]; on Mu-type opioid receptor; in [10]; in assay [11]) was above 30 µM each time.
On to `CC(=O)O[C@]1(C(C)=O)CC[C@H]2[C@@H]3C=C(C)C4=CC(=O)CC[C@@H]4[C@H]3CC[C@@]21C` [NOMEGESTROL ACETATE], for which the AC50 (in [1]; in assay [2]; on Prothrombin; in assay [3]; at Histamine H3 receptor; in [4]) was above 30 µM in each case. The half-maximal activity concentration (AC50) is above 30 µM in assay [5]; above 30 µM on Acetylcholinesterase; above 10 µM on Thromboxane A2 receptor [6]; above 30 µM in assay [7]; above 30 µM on D(1A) dopamine receptor; above 30 µM on D(3) dopamine receptor. The half-maximal activity concentration (AC50) (on Thromboxane A2 receptor [8]; in assay [9]; on Mu-type opioid receptor; in assay [10]; in [11]) was above 30 µM in each case.
For the compound `CCn1cc(C(=O)O)c(=O)c2cc3c(cc21)OCO3` [OXOLINIC ACID], the AC50 (in assay [1]; in [2]; on Prothrombin; in assay [3]; on Histamine H3 receptor; in [4]) was above 30 µM throughout. Also, the half-maximal activity concentration (AC50) (in assay [5]; at Acetylcholinesterase; on Thromboxane A2 receptor [6]; in [7]; at D(1A) dopamine receptor; at D(3) dopamine receptor) was above 30 µM in each case. Besides, the half-maximal activity concentration (AC50) (at Thromboxane A2 receptor [8]; in assay [9]; on Mu-type opioid receptor; in [10]; in assay [11]) was above 30 µM throughout.
On to `FC(F)(F)c1ccc(CNc2ccc(Cc3c[nH]c4ncc(Cl)cc34)cn2)cn1` [PEXIDARTINIB], for which the half-maximal activity concentration (AC50) was above 30 µM in assay [1]; above 30 µM in [2]; above 30 µM at Prothrombin; 0.627 µM in assay [3]; above 30 µM on Histamine H3 receptor; above 30 µM in assay [4]. The AC50 is 17.1 µM in assay [5]; above 30 µM at Acetylcholinesterase; 8.61 µM at Thromboxane A2 receptor [6]; 8.6 µM in assay [7]; 20.2 µM on D(1A) dopamine receptor; 10.2 µM at D(3) dopamine receptor. The half-maximal activity concentration (AC50) is above 30 µM at Thromboxane A2 receptor [8]; 9.3 µM in [9]; 13.4 µM on Mu-type opioid receptor; above 30 µM in assay [10]; 3.96 µM in assay [11].
As for `Nc1ccc(C(=O)Oc2ccccc2)c(O)c1` [PHENYL AMINOSALICYLATE], the AC50 in assay [1] was above 30 µM; in assay [2] it was above 30 µM; on Prothrombin, above 30 µM; in assay [3], above 30 µM; at Histamine H3 receptor it was above 30 µM; in [4], 14.5 µM. The AC50 in [5] was above 30 µM; on Acetylcholinesterase, above 30 µM; at Thromboxane A2 receptor [6], 17.2 µM; in assay [7], above 30 µM; on D(1A) dopamine receptor, above 30 µM; on D(3) dopamine receptor, above 30 µM. Further, the concentration at half-maximal activity (AC50) is above 30 µM at Thromboxane A2 receptor [8]; 0.235 µM in assay [9]; above 30 µM at Mu-type opioid receptor; above 30 µM in assay [10]; 0.777 µM in assay [11].
Take `CN1CCC(=C2c3ccccc3Sc3ccccc32)CC1` [PIMETHIXENE]: the AC50 in [1] is above 30 µM; in [2] it was above 30 µM; on Prothrombin, above 30 µM; in assay [3], 0.0145 µM; on Histamine H3 receptor, above 30 µM; in assay [4] it was above 30 µM. The half-maximal activity concentration (AC50) in assay [5] was 0.0422 µM; on Acetylcholinesterase, above 30 µM; on Thromboxane A2 receptor [6] it was 14 µM; in assay [7] it was 3.9 µM; at D(1A) dopamine receptor, 0.0552 µM; at D(3) dopamine receptor, 0.0497 µM. Moreover, the concentration at half-maximal activity (AC50) on Thromboxane A2 receptor [8] was above 30 µM; in assay [9] it was 11.2 µM; on Mu-type opioid receptor, 8.56 µM; in [10] it was above 30 µM; in assay [11], 0.142 µM.
For `[H]/N=C(\N/C(=N/[H])Nc1ccc(Cl)cc1)NC(C)C` [PROGUANIL], the AC50 (in assay [1]; in [2]; at Prothrombin; in assay [3]; at Histamine H3 receptor; in assay [4]) was above 30 µM each time. For the same compound, the AC50 in assay [5] was 11.9 µM; on Acetylcholinesterase, above 30 µM; at Thromboxane A2 receptor [6] it was above 30 µM; in assay [7], 19 µM; at D(1A) dopamine receptor it was 8.26 µM; on D(3) dopamine receptor it was above 30 µM. In addition, the concentration at half-maximal activity (AC50) on Thromboxane A2 receptor [8] was above 30 µM; in assay [9], 12.5 µM; on Mu-type opioid receptor it was above 30 µM; in assay [10] it was above 30 µM; in assay [11] it was 1.07 µM.
`CC(CN1CC(=O)NC(=O)C1)N1CC(=O)NC(=O)C1` (stereo not drawn) [RAZOXANE]: the AC50 was above 30 µM in [1]; 20.4 µM in assay [2]; above 30 µM on Prothrombin; above 30 µM in [3]; above 30 µM on Histamine H3 receptor; above 30 µM in assay [4]. Also, the concentration at half-maximal activity (AC50) in assay [5] is above 30 µM; at Acetylcholinesterase, above 10 µM; at Thromboxane A2 receptor [6], above 30 µM; in assay [7], above 30 µM; on D(1A) dopamine receptor, above 30 µM; on D(3) dopamine receptor, above 30 µM. Besides, the AC50 (on Thromboxane A2 receptor [8]; in assay [9]; at Mu-type opioid receptor; in assay [10]; in assay [11]) was above 30 µM throughout.
